This note sets out measurements from US20250059205A1, “Heterocyclic Compounds and Methods of Use” (AMGEN INC., priority 2021, published 2025).

The subject of assay [1] is Phosphorylation of ERK1/2 in A-427 cells. In words: Phospho-ERK1/2 MSD Assay (A-427 cells). It counts as cell-based. To be noted: Homo sapiens, A-427, 2 h, 2 h treatment, read-out: p-ERK (A427 cells) IC50. An outline of the steps:
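ERK1/2 phosphorylation measured by Meso Scale whole-cell lysate assay after A-427 cells were exposed to a titration of compound for 2 h at 37 °C.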

Assay [2] has as its system Phosphorylation of ERK1/2 in AsPC-1 cells. In words: Phospho-ERK1/2 MSD Assay (AsPC-1 cells). It counts as cell-based. To be noted: Homo sapiens, ASPC1, 2 h, 2 hours treatment, read-out: p-ERK (AsPC-1 cells) IC50. A digest of the protocol:
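Read-out: MSD electrochemiluminescent detection of phosphorylated ERK1/2 in whole-cell lysates, fitted to a 4-parameter logistic curve for IC50. Prior to lysis, AsPC-1 cells (25,000 per well) received a 2 h compound dose-response at 37 °C.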

Assay [3] deals with GDP-bound KRAS protein (aa 1-169), containing both G12D and C118A amino acid substitutions (Homo sapiens, UniProt P01116, C118A/G12D). In words: KRAS G12D Coupled Nucleotide Exchange Assay. Format: biochemical. Conditions: 2 h compound pre-incubation. The method, then: Following compound pre-incubation, purified SOS protein (aa 564-1049) and GTP (Roche 10106399001) were added to the assay wells and incubated for an additional 30 min. […] The assay plates were then read on a PerkinElmer EnVision Multilabel Reader, using AlphaScreen® technology, and data were analyzed using a 4-parameter logistic model to calculate IC50 values.

In assay [4] the target is His-tagged KRAS G12D protein (Homo sapiens, UniProt P01116, G12D). In words: KRAS G12D TR-FRET Assay. It counts as binding. On the technique in general: TR-FRET usually uses a lanthanide donor and a delayed reading to cut background.
Sequence of His-tagged KRAS G12D protein (P01116 1-188 isoform P01116-2 G12D): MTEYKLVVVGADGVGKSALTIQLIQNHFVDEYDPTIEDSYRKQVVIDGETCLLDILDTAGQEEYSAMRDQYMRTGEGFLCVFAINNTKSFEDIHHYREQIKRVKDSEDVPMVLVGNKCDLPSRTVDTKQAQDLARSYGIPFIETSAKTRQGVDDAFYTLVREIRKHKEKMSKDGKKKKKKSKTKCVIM

Sequence of GDP-bound KRAS protein (aa 1-169), containing both G12D and C118A amino acid substitutions (P01116 1-169 isoform P01116-2 G12D/C118A): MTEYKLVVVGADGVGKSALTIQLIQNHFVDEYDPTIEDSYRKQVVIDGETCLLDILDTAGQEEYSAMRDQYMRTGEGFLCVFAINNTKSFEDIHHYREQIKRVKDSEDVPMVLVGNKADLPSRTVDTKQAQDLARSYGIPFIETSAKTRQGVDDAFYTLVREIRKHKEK

Regarding `C#Cc1c(F)ccc2cc(O)cc(-c3c(F)cc4c(N5C[C@@H]6CC[C@H]5CN6)nc(OC[C@@]56CCCN5C[C@H](F)C6)nc4c3F)c12` [Example 188, 4-(4-((15,4S)-2,5-diazabicyclo[2.2.2]octan-2-yl)-6,8-difluoro-2-(((2R,7aS)-2-fluorotetrahydro-1H-pyrrolizin-7a(5H)-yl)methoxy)quinazolin-7-yl)-5-ethynyl-6-fluoronaphthalen-2-ol], the 50% inhibitory concentration (IC50) (in general, the concentration at which inhibition is half-maximal) in assay [1] is 2 nM; in assay [2], 16 nM; in assay [4], 2 nM. Besides, in assay [3], the “Avg 2 h Coupled Exchange IC50” value came out at 2 nM.
As for `Fc1c(-c2cccc3cccc(Cl)c23)ccc2c(N3[C@@H]4CC[C@H]3CNC4)nc(OC[C@@]34CCCN3C[C@H](F)C4)nc12` [Example 24, 4-((1R,5S)-3,8-diazabicyclo[3.2. 1]octan-8-yl)-7-(8-chloronaphthalen-1-yl)-8-fluoro-2-(((2R,7aS)-2-fluorotetrahydro-1H-pyrrolizin-7a(5H)-yl)methoxy) quinazoline], the IC50 in assay [1] was 3910 nM; in assay [2] it was 1390 nM; in assay [4] it was 31 nM. The “Avg 2 h Coupled Exchange IC50” value in assay [3] amounted to 16 nM.
For `Nc1ccc(C2CC2)c(-c2ccc3c(N4C[C@H]5CC[C@@H](C4)N5)nc(OC[C@@]45CCCN4C[C@H](F)C5)nc3c2F)n1` [Example 224, 6-(4-((1R,5S)-3,8-diazabicyclo[3.2.1]octan-3-yl)-8-fluoro-2-(((2R,7aS)-2-fluorotetrahydro-1H-pyrrolizin-7a(5H)-yl)methoxy)quinazolin-7-yl)-5-cyclopropylpyridin-2-amine] the same measures were 7620 nM, above 10000 nM, 274 nM and 41 nM.
On to `Oc1cc(-c2ccc3c(N4C[C@H]5C[C@@H](C4)N5)nc(OCC45CCCN4CC(F)(F)C5)nc3c2F)c2ccccc2c1` (stereo partly drawn) [Example 8, 4-(4-((1R,5S)-3,6-diazabicyclo[3.1. 1]heptan-3-yl)-2-((2,2-difluorotetrahydro-1H-pyrrolizin-7a(5H)-yl)methoxy)-8-fluoroquinazolin-7-yl)naphthalen-2-ol], for which the IC50 in assay [1] was 7880 nM; in assay [2], 6940 nM; in assay [4], 92 nM. For the same compound, the “Avg 2 h Coupled Exchange IC50” value in assay [3] was 87 nM.
Regarding `O=c1cc(-c2ccc3c(N4C[C@H]5CC[C@@H](C4)N5)nc(OC[C@@]45CCCN4C[C@H](F)C5)nc3c2F)c2ccccc2[nH]1` [Example 222, 4-(4-((1R,5S)-3,8-diazabicyclo[3.2.1]octan-3-yl)-8-fluoro-2-(((2R,7aS)-2-fluorotetrahydro-1H-pyrrolizin-7a(5H)-yl)methoxy)quinazolin-7-yl)quinolin-2-ol], the IC50 in assay [1] was above 10000 nM; in assay [2], above 10000 nM; in assay [4], 255 nM. Moreover, the “Avg 2 h Coupled Exchange IC50” value in assay [3] came out at 74 nM.
As to `Cc1c(-c2cc(O)cc3cccc(Cl)c23)ccc2c(N3C[C@@H]4CC[C@H]3CN4)nc(OC[C@@]34CCCN3C[C@H](F)C4)nc12` [Example 96, 4-(4-((1S,4S)-2,5-diazabicyclo[2.2. 2]octan-2-yl)-2-(((2R,7aS)-2-fluorotetrahydro-1H-pyrrolizin-7a(5H)-yl)methoxy)-8-methylquinazolin-7-yl)-5-chloronaphthalen-2-ol], the IC50 is 95 nM in assay [1], 213 nM in assay [2] and 7 nM in assay [4]. Also, the “Avg 2 h Coupled Exchange IC50” value in assay [3] amounted to 5 nM.
Consider `CCc1cccc2cc(O)cc(-c3c(F)cc4c(N5C[C@@H]6CC[C@H]5CN6)nc(OC[C@@]56CCCN5C[C@H](F)C6)nc4c3F)c12` [Example 109, 4-(4-((1S,4S)-2,5-Diazabicyclo[2.2.2]octan-2-yl)-6,8-difluoro-2-(((2R,7aS)-2-fluorotetrahydro-1H-pyrrolizin-7a(5H)-yl)methoxy)quinazolin-7-yl)-5-ethylnaphthalen-2-ol], for which the results for the IC50 in assay [1], in assay [2] and in assay [4] were 17 nM, 29 nM and 4 nM, respectively. Besides, the “Avg 2 h Coupled Exchange IC50” value in assay [3] turned out to be 3 nM.
The like results for `CCc1c(F)ccc2cc(O)cc(-c3c(F)cc4c(N5C[C@H]6CC[C@@H](C5)N6)nc(OCC56CCCN5CC(F)(F)C6)nc4c3F)c12` (stereo partly drawn) [Example 128, 4-(4-((1R,5S)-3,8-diazabicyclo[3.2.1]octan-3-yl)-2-((2,2-difluorotetrahydro-1H-pyrrolizin-7a(5H)-yl)methoxy)-6,8-difluoroquinazolin-7-yl)-5-ethyl-6-fluoronaphthalen-2-ol] were, in that order, 308 nM, 243 nM, 3 nM and 4 nM.
For `Cc1c(-c2cc(O)cc3ccccc23)ccc2c(N3C[C@H]4CC[C@@H](C3)N4)nc(OC[C@@]34CCCN3C[C@H](F)C4)nc12` [Example 33, 4-(4-((1R,5S)-3,8-diazabicyclo[3.2. 1]octan-3-yl)-2-(((2R,7aS)-2-fluorotetrahydro-1H-pyrrolizin-7a(5H)-yl)methoxy)-8-methylquinazolin-7-yl)naphthalen-2-ol] the same measures were 291 nM, 509 nM, 8 nM and 3 nM.
For `Cc1cccc2cccc(-c3ccc4c(N5[C@@H]6CC[C@H]5CNC6)nc(OC[C@@]56CCCN5C[C@H](F)C6)nc4c3F)c12` [Example 28, 4-((1R,5S)-3,8-diazabicyclo[3.2. 1]octan-8-yl)-8-fluoro-2-(((2R,7aS)-2-fluorotetrahydro-1H-pyrrolizin-7a(5H)-yl)methoxy)-7-(8-methylnaphthalen-1-yl)quinazoline] the same measures were above 10000 nM, 3610 nM, 90 nM and 44 nM.
As for `CCc1c(F)ccc2cc(O)cc(-c3ccc4c(N5CC6CCC(C5)N6)nc(OC[C@@]56CCCN5C[C@H](F)C6)nc4c3)c12` [Example 111], the IC50 turned out to be 28 nM in assay [1], 51 nM in assay [2] and 2 nM in assay [4]. In addition, the “Avg 2 h Coupled Exchange IC50” value in assay [3] came to 1 nM.
Regarding `Oc1cc(-c2c(F)cc3c(N4C[C@H]5CCC[C@@H](C4)N5)nc(OC[C@@]45CCCN4C[C@H](F)C5)nc3c2F)c2ccccc2c1` [Example 120, 4-(4-((1R,5S)-3,9-diazabicyclo[3.3.1]nonan-3-yl)-6,8-difluoro-2-(((2R,7aS)-2-fluorotetrahydro-1H-pyrrolizin-7a(5H)-yl)methoxy)quinazolin-7-yl)naphthalen-2-ol], the figures for the IC50 in assay [1], in assay [2] and in assay [4] were 1160 nM, 1170 nM and 8 nM, respectively. Moreover, the “Avg 2 h Coupled Exchange IC50” value in assay [3] is 4 nM.
As to `CCc1c(F)ccc2cc(O)cc(-c3c(F)cc4c(N5CCC6CCC(C5)N6)nc(OC[C@@]56CCCN5C[C@H](F)C6)nc4c3F)c12` (stereo partly drawn) [Example 153, 4-(4-(3,9-diazabicyclo[4.2.1]nonan-3-yl)-6,8-difluoro-2-(((2R,7aS)-2-fluorotetrahydro-1H-pyrrolizin-7a(5H)-yl)methoxy)quinazolin-7-yl)-5-ethyl-6-fluoronaphthalen-2-ol], the IC50 was 349 nM in assay [1], 419 nM in assay [2] and 6 nM in assay [4]. Besides, the “Avg 2 h Coupled Exchange IC50” value in assay [3] was determined as 3 nM.
In the case of `CCc1c(F)ccc2cc(O)cc(-c3ccc4c(N5C[C@H]6CC[C@@H](C5)N6)nc(OCCC(C)(C)O)nc4c3F)c12` [Example 132, 4-(4-((1R,5S)-3,8-diazabicyclo[3.2.1]octan-3-yl)-8-fluoro-2-(3-hydroxy-3-methylbutoxy)quinazolin-7-yl)-5-ethyl-6-fluoronaphthalen-2-ol], the figures for the IC50 in assay [1], in assay [2] and in assay [4] were 1690 nM, 1200 nM and 16 nM, respectively. Also, the “Avg 2 h Coupled Exchange IC50” value in assay [3] is 6 nM.
For `Oc1cc(-c2c(F)cc3c(N4[C@@H]5CC[C@H]4CNC5)nc(OC[C@@]45CCCN4C[C@H](F)C5)nc3c2F)c2c(F)c(F)ccc2c1` [Example 148, 4-(4-((1R,5S)-3,8-diazabicyclo[3.2.1]octan-8-yl)-6,8-difluoro-2-(((2R,7aS)-2-fluorotetrahydro-1H-pyrrolizin-7a(5H)-yl)methoxy)quinazolin-7-yl)-5,6-difluoronaphthalen-2-ol] the same measures were 83 nM, 143 nM, 2 nM and 2 nM.
Regarding `Oc1cc(-c2c(Cl)cc3c(N4C[C@H]5CC[C@@H](C4)N5)nc(OC[C@@]45CCCN4C[C@H](F)C5)nc3c2F)c2c(Cl)cccc2c1` [Example 86, 4-(4-((1R,5S)-3,8-diazabicyclo[3.2. 1]octan-3-yl)-6-chloro-8-fluoro-2-(((2R,7aS)-2-fluorotetrahydro-1H-pyrrolizin-7a(5H)-yl)methoxy)quinazolin-7-yl)-5-chloronaphthalen-2-ol], the IC50 in assay [1] is 54 nM; in assay [2], 149 nM; in assay [4] it was 4 nM. Further, the “Avg 2 h Coupled Exchange IC50” value in assay [3] amounted to 2 nM.
